This is an account of results in patent US20070117770A1, “Human ribosomal DNA (rDNA) and ribosomal RNA (rRNA) nucleic acids and uses thereof” (Cylene Pharmaceuticals, Inc., priority 2005, published 2007).

What all share (experiment): Protein kinase inhibition assay
The test system of one assay is AMPK(r). It counts as biochemical, rat. The note with it: 2.5 μM. The method, then:
(§1) Certain compounds were tested for activity in protein kinase inhibition assays. All substrates were dissolved and diluted to working stocks in de-ionized water, apart from histone H1 (10× working stock in 20 mM MOPS pH 7.0), PDKtide (10× working stock in 50 mM Tris pH 7.0) ATF2 (which is typically stored at a 20× working stock in 50 mM Tris pH 7.5, 150 mM NaCl, 0.1 mM EGTA, 0.03% Brij-35, 50% glycerol, 1 mM benzamidine, 0.2 mM PMSF and 0.1% R-mercaptoethanol), KKLNRTLSFAEPG (SEQ ID NO:203) and RRRLSFAEPG (SEQ ID NO:204) (50 mM HEPES pH 7.4) and GGEEEEYFELVKKKK (SEQ ID NO:205) (20 mM MOPS pH 7.0). All kinases were pre-diluted to a 10× working concentration prior to addition into the assay. The composition of the dilution buffer for each kinase is detailed below.
In a final reaction volume of 25 μl, AMPK (r) (5-10 mU) is incubated with 32 mM HEPES pH 7.4, 0.65 mM DTT, 0.012% Brij-35, 200 μM AMP, 200 μM AMARAASAAALARRR (SEQ ID NO:208), 10 mM MgAcetate and [gamma-33P-ATP] (specific activity approx. 500 cpm/pmol, concentration as required). The reaction is initiated by the addition of the MgATP mix. After incubation for 40 minutes at room temperature, the reaction is stopped by the addition of 5 μl of a 3% phosphoric acid solution. […]

A further assay concerns the target EphA2(h) (Homo sapiens, UniProt P29317). Format: biochemical. The note with it: read-out: percent residual activity of EphA2(h). The protocol: as §1
(§2) In a final reaction volume of 25 μl, EphA2 (h) (5-10 mU) is incubated with 8 mM MOPS pH 7.0, 0.2 mM EDTA, 0.1 mg/ml poly(Glu, Tyr) 4:1, 10 mM MgAcetate and [gamma-33P-ATP] (specific activity approx. 500 cpm/pmol, concentration as required). The reaction is initiated by the addition of the MgATP mix. After incubation for 40 minutes at room temperature, the reaction is stopped by the addition of 5 μl of a 3% phosphoric acid solution. 10 μl of the reaction is then spotted onto a Filtermat A and washed three times for 5 minutes in 75 mM phosphoric acid and once in methanol prior to drying and scintillation counting.

For a further assay, the target named is MSK2(h) (Homo sapiens, UniProt O75676). Format: biochemical. To be noted: read-out: percent residual activity of MSK2(h). The protocol: as §1
as §2, with “MSK2” for “EphA2”, “30 μM GRPRTSSFAEGKK (SEQ ID NO:220),” for “0.1 mg/ml poly(Glu, Tyr) 4:1,”, “P30 filtermat” for “Filtermat A”

A further assay addresses PKCθ(h) (Homo sapiens, UniProt Q04759). Format: biochemical. The note with it: read-out: percent residual activity of PKCθ(h). The method, then:
as §1
as §2, with “PKCθ” for “EphA2”, “histone H1,” for “poly(Glu, Tyr) 4:1,”, “P30 filtermat” for “Filtermat A”

The next assay concerns the target Pyk2(h) (Homo sapiens, UniProt Q14289). Format: biochemical. To be noted: read-out: percent residual activity of Pyk2(h). The protocol:
as §1
as §2, with “Pyk2” for “EphA2”

A further assay addresses Rsk1(r) (Rattus norvegicus, UniProt Q63531). It counts as biochemical. The note with it: read-out: percent residual activity of Rsk1(r). The protocol: as §1
as §2, with “Rsk1 (r)” for “EphA2 (h)”, “30 μM KKKNRTLSVA (SEQ ID NO:212),” for “0.1 mg/ml poly(Glu, Tyr) 4:1,”, “P30 filtermat” for “Filtermat A”

Chain of MSK2(h) (O75676 whole entry): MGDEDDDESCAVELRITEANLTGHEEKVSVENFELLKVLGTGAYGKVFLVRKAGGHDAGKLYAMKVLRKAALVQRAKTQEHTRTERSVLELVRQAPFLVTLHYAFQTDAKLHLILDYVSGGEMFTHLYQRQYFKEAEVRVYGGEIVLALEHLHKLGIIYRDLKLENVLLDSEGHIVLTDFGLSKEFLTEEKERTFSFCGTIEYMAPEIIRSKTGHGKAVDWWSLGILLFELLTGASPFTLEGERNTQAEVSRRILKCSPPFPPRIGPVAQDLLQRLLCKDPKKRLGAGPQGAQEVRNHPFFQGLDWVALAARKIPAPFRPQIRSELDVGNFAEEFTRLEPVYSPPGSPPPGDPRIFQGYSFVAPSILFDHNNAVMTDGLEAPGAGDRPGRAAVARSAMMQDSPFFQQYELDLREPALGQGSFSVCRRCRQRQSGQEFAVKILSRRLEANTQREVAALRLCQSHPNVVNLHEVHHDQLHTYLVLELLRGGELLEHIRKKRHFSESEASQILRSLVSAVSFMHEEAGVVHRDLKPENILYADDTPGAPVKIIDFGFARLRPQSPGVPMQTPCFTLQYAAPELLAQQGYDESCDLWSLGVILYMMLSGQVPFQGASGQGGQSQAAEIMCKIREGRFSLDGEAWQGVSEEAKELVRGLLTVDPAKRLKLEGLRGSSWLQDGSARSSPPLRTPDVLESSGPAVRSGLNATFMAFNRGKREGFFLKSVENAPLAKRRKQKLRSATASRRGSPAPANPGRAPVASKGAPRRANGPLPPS
Chain of EphA2(h) (P29317 24-976): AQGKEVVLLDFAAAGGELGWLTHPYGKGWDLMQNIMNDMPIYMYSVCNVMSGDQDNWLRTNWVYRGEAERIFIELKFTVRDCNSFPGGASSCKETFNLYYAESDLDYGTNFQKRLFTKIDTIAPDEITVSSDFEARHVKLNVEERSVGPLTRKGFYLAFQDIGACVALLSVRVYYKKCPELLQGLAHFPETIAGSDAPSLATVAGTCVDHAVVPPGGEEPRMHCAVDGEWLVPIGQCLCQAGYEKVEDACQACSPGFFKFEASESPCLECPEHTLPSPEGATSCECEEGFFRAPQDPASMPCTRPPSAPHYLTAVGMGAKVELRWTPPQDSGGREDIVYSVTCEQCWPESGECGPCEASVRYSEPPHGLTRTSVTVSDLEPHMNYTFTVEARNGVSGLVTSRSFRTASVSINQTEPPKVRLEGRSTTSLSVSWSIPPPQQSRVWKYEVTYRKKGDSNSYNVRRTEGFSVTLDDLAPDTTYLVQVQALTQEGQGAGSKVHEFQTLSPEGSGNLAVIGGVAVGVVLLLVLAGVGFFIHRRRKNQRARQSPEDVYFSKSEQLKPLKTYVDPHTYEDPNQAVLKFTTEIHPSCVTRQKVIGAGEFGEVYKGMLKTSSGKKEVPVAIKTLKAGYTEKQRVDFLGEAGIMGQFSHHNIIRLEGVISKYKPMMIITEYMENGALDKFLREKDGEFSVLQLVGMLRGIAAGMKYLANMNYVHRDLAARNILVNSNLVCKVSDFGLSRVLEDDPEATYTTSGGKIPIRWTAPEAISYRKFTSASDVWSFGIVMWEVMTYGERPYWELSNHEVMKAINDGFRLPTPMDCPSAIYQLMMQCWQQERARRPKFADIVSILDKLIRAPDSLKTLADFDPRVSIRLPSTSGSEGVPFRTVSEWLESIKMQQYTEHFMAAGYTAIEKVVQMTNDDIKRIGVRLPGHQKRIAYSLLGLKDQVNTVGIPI
Chain of Rsk1(r) (Q63531 whole entry): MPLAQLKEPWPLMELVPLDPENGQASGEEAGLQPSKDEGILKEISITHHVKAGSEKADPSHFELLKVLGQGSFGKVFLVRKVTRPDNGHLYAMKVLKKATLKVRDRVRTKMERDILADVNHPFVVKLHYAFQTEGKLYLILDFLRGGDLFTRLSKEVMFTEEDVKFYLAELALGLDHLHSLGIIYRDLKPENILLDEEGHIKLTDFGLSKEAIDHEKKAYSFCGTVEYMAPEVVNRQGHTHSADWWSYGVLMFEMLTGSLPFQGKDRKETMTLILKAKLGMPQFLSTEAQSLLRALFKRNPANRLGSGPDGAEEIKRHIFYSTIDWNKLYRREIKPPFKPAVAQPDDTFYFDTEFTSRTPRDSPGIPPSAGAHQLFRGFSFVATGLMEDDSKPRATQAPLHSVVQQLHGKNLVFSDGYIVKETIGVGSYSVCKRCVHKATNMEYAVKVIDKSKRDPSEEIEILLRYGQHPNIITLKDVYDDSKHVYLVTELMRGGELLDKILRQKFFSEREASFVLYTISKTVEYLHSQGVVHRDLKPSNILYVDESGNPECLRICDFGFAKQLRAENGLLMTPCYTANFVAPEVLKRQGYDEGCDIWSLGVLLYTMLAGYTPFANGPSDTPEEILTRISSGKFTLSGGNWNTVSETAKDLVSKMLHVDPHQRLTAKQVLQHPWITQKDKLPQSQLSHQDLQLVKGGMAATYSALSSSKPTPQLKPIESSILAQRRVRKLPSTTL
Chain of Pyk2(h) (Q14289 whole entry): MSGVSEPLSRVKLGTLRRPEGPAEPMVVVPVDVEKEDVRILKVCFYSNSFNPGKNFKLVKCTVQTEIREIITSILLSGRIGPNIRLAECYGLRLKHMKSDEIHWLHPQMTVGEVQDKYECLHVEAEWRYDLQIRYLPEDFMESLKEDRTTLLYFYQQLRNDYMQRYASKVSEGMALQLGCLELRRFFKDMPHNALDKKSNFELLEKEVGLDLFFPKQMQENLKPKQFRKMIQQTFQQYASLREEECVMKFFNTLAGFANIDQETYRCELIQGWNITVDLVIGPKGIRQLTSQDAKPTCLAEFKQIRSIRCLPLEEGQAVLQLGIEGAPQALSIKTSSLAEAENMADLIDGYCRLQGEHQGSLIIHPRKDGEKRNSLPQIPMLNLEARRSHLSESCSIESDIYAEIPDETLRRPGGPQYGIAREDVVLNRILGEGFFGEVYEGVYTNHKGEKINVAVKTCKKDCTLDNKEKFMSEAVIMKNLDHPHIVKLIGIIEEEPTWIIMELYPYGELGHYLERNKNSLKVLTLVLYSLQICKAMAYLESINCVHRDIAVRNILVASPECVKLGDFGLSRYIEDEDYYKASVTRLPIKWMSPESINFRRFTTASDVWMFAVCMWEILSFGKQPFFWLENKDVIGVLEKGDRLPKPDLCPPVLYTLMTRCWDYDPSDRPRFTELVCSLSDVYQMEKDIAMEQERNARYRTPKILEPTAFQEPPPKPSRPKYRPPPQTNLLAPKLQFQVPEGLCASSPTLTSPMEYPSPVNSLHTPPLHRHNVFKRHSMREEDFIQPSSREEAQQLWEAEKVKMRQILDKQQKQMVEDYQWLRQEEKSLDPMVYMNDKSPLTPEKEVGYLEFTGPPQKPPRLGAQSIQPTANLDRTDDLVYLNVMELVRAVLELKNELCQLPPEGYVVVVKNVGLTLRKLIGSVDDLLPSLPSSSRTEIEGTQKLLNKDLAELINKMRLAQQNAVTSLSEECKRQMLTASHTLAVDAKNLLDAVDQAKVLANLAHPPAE
Chain of PKCθ(h) (Q04759 whole entry): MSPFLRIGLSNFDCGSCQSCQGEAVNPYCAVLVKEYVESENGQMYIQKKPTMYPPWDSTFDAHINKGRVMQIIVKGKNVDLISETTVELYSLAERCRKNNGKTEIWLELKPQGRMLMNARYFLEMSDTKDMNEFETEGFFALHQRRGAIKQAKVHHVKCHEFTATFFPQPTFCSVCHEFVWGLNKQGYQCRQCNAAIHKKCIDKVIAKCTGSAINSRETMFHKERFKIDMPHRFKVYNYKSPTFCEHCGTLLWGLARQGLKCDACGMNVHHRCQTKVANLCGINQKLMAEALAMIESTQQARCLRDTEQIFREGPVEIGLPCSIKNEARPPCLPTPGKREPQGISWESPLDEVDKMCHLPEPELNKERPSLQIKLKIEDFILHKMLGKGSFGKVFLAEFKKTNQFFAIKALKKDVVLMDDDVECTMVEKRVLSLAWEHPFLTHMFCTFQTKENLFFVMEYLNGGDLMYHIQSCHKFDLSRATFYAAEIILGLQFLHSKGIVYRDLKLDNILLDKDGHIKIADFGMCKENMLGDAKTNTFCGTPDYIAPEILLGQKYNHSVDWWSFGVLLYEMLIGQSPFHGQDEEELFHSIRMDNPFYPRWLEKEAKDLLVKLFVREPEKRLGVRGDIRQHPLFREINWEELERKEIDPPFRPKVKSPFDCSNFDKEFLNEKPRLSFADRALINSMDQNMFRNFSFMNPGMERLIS

Turning to `CN1CCCC1CCNC(=O)c1cn2c3c(c(N4CCC(c5cnccn5)C4)c(F)cc3c1=O)Oc1cc3ccccc3cc1-2` (stereo not drawn) [Compound A-1], the “percent residual activity of AMPK(r)” value in the assay on AMPK(r) is reported as 82%. Also, the remaining activity at 2.5 µM at EphA2(h) amounted to 101%; at MSK2(h) it was 50%; on PKCθ(h), 91%; at Pyk2(h), 95%; at Rsk1(r), 85%.

`CC(=O)N1CCN(c2ccc3c(=O)c(C(=O)NCCN4CCCC4)c4n(C)c5ccccc5n4c3n2)CC1` [Compound B-1]: the “percent residual activity of AMPK(r)” value with AMPK(r) came to 95%. In addition, the remaining activity at 2.5 µM was found to be 102% on EphA2(h); 94% at MSK2(h); 108% at PKCθ(h); 105% at Pyk2(h); 110% at Rsk1(r).
